Experimental data taken from the METLIN SMRT retention time set (Domingo-Almenara et al. 2019).

experiment: gradient 5% acetonitrile 3 min, to 50% in 2 min, to 85% in 15 min, held 3 min, 100 µL/min; settings: column: Zorbax Extend-C18 2.1 x 50 mm; eluents: water / acetonitrile, 0.1% formic acid
Summary of the method: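 Mixtures of ~100 pure standards were chromatographed on a Zorbax Extend-C18 column (2.1 × 50 mm, 1.8 μm) at 100 μL/min using water and acetonitrile, each with 0.1% formic acid. Detection used a quadrupole time-of-flight mass spectrometer in positive and negative ionization mode, and data collection spanned 3 months. Retention time was obtained from adduct peaks picked computationally and each checked manually.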

| SMILES | RP-LC retention time |
| --- | --- |
| Cc1ccc(C(=O)N2CCC(N3C(=O)C(O)C34CCCCC4)CC2)s1 (configuration not stated) | 678 s |
| CCN(CC)S(=O)(=O)c1cc(-c2nnc(-c3ccccc3OC)o2)ccc1Cl | 1090 s |
| COc1ccc(-c2cc(N3CCN(C(=O)c4c(F)cccc4Cl)CC3)ncn2)cc1 | 612 s |
| Cc1nc(-c2csc(S(=O)(=O)N3CCCC(C(=O)NCCc4cccs4)C3)c2)no1 (configuration not stated) | 872 s |
| CCCn1cc(C(=O)NCCC2=CCCCC2)c2nn(-c3ccccc3)c(=O)c-2c1 | 1090 s |
| COc1ccccc1-c1nc(Cn2c(=O)c3c(C)cc(C)nc3n(C)c2=O)c(C)o1 | 1070 s |
| Nc1cc(Nc2ccc(Br)cc2)nc(N)n1 | 688 s |
| Cc1ccc(NC(=O)C2CCN(C(=O)c3ncn4c3COC(c3ccc(F)cc3)C4)CC2)cc1C (configuration not stated) | 848 s |
| Cc1[nH]c(C)c(S(=O)(=O)N2CCC(C(=O)NC3CCCCCC3)CC2)c1C(=O)N1CCCC1 | 702 s |
| Cc1ccc(C2=NC3(CCN(C(=O)c4ccc(F)cc4F)CC3)ON2)cc1 | 855 s |
| Fc1ccc(-c2nc3ccccc3[nH]2)cc1 | 557 s |
| CCCCSc1ncnc2[nH]ncc12 | 919 s |
| CC(=O)NCc1ccc(-c2noc(-c3ccc(F)c(Cl)c3)n2)s1 | 955 s |
| COc1cccc(Nc2nc(C)c(C(=O)Nc3cc(F)cc(F)c3)s2)c1 | 1040 s |
| O=C(NCCN1CCCCCC1)C1CCN(c2nc3cccnc3s2)CC1 | 598 s |
| O=C(NCc1ccc(F)cc1Cl)C1CCN(c2cncnc2N2CCCC2)CC1 | 665 s |
| O=C(NCc1ccccn1)c1cn(-c2cc(N3CCOCC3)ncn2)cn1 | 581 s |
| Cc1cccc(-c2ncccc2CNS(=O)(=O)c2ccc(F)c(F)c2)c1 | 755 s |
| CCCCCNC(=O)C1CCN(S(C)(=O)=O)c2cc(Cl)ccc2O1 (configuration not stated) | 920 s |
| O=C(Cc1ccc(F)cc1)NC1CCN(c2nnc3ccccn23)CC1 | 629 s |
| CC(C)c1noc(-c2cc(=O)n(CC(=O)Nc3cccc(F)c3)c3ccccc23)n1 | 1020 s |
| CCOC(=O)c1nc(N(CC)c2cccc(C)c2)c2ccccc2n1 | 1050 s |
| Cc1ccc(S(=O)(=O)CCc2noc(C(=O)NCCN3CCC(C)CC3)n2)cc1 | 631 s |

| SMILES | RP-LC retention time |
| --- | --- |
| Cn1cccc1C(=O)Nc1cnn(-c2ncc(N3CCCC3)cn2)c1 | 789 s |
| O=C(C1CCC1)N1CCc2sc(S(=O)(=O)NCc3ccccc3)cc2C1 | 847 s |
| COc1ccc(N2CCN(c3ncc4c(n3)CCN(Cc3ccc(C)cc3)C4)CC2)cc1 | 675 s |
| O=C(c1ccoc1)N1CCCC1Cc1noc(-c2cnccn2)n1 (configuration not stated) | 686 s |
| COc1ccc(-n2c(=O)n(C)c(=O)c3cc(C(=O)NCc4ccc(F)cc4)cnc32)cc1 | 849 s |
| O=C(NCCN1CCCCCC1)c1ccc2c(c1)NC(=O)C1CCCCN21 (configuration not stated) | 601 s |
| CCOC(=O)Cc1ccc(NC(=O)N2CCCC2c2c(C)noc2C)cc1 (configuration not stated) | 775 s |
| O=C(CCCn1nc(-c2ccccc2)c2cc(Cl)ccc21)N1CCN(c2ccccn2)CC1 | 764 s |
| COc1ccc(C[C@@H]2NC[C@@H](O)[C@@H]2OC(C)=O)cc1 | 600 s |
| O=C(c1ccc(F)c(Cl)c1)N1CCN(C(=O)c2nnn3c2COC(c2ccccc2)C3)CC1 (configuration not stated) | 913 s |
| CCOc1ccc(NC(=O)c2nc(N(C)C)c3c(C)cc(C)nc3n2)cc1 | 661 s |
| CCCn1ncc(N2CCC(C(=O)N3CCCCC3)CC2)cc1=O | 559 s |
| COc1ccc(NC(=O)C2CC(=O)N(c3n[nH]c4cccc(F)c34)C2)cc1 (configuration not stated) | 717 s |
| Cc1csc(NC(=O)c2ccc(Br)cc2)n1 | 902 s |
| CC(=O)Nc1ccc(C2(C(=O)NCc3ccc(F)cc3Cl)CCC2)cc1 | 804 s |
| Cc1ccc(-c2nc(C)c3c(n2)N(Cc2ccccn2)C(=O)CC3)cc1 | 771 s |
| CN(C)C(=O)C1CCN(c2nc3ccc(-c4ccc(F)cc4)nc3s2)CC1 | 912 s |
| COc1ccccc1NC(=O)Cn1nc2cc(C)nc(-c3cccc(F)c3)n2c1=O | 826 s |
| COC[C@@H]1OCCN(S(=O)(=O)c2cccc(F)c2)[C@H]1c1ccccc1 | 928 s |
| Cc1ccc(C)c(N2CCN(C(=O)c3ccc4c(c3)N(C)C(=O)C3CCCCN43)CC2)c1 (configuration not stated) | 1180 s |
| CCc1nc(-c2ccc3c(c2)CCN3C(=O)Cc2ccc(OC)cc2)no1 | 1040 s |
| O=C(c1cccc2c1CCN2C(=O)C1CC1)N1CCCCC1 | 746 s |
| COc1ccc(N2CC(c3noc(-c4ccc(C(C)(C)C)cc4)n3)CC2=O)cc1OC (configuration not stated) | 1140 s |

| SMILES | RP-LC retention time |
| --- | --- |
| Cc1ccc(-c2noc(C3CCCN3C(=O)c3ccc(C(C)C)cc3)n2)cc1 (configuration not stated) | 1210 s |
| Cc1nc([C@@H]2CN(C(=O)c3cc(C)n(Cc4ccco4)c3C)C[C@H]2C(N)=O)n[nH]1 | 618 s |
| COCc1nc(-c2ccc(OC3CN(Cc4ccsc4)C3)cc2)no1 | 656 s |
| Cc1ccc(CN2CCn3c(nn(CC4CC4)c3=O)C2)nc1 | 561 s |
| CC(=O)Nc1ccc(C(=O)NCc2cccs2)c(N2CCCCC2)c1 | 676 s |
| COc1ncc(C(=O)NCCc2ccc(Cl)cc2)cn1 | 788 s |
| CSc1cccc(NC(=O)Cn2ccn3nc(-c4ccccc4)c(CO)c3c2=O)c1 | 852 s |
| CCOC(=O)c1c(S(=O)(=O)NCC(=O)N2CCN(c3ccccn3)CC2)c(C)n(C)c1C | 618 s |
| CN(C)C(=O)c1csc(N2CCN(c3ccccc3F)CC2)n1 | 884 s |
| COc1ccc(OC)c(NC(=O)NCCc2nc3cccnc3n2C2CCCC2)c1 | 706 s |
| Cc1cccn2cc(-c3cccc(NS(=O)(=O)c4ccc(Br)cc4)c3)nc12 | 700 s |
| CC1=C(C(=O)N2CC(c3noc(COc4ccc(C)cc4)n3)C2)C2(CCCCC2)OC1=O | 1010 s |
| Cc1ccc(C)c(-c2coc(-c3ccc(N)cc3)n2)c1 | 1060 s |
| Cc1nc(Nc2ccc(F)cn2)sc1C(=O)N1CCN(c2ncccn2)CC1 | 719 s |
| Cc1ccc(CNC(=O)C2(C)CCN(S(=O)(=O)c3ccccc3)CC2)cc1 | 925 s |
| O=C(Nc1ccc(Cl)cc1F)C1CCc2nc(N3CCOCC3)ncc2C1 (configuration not stated) | 856 s |
| Cc1nc(C(=O)Nc2ccc(F)cc2C)c(C)o1 | 889 s |
| CN(C)N1C(=O)c2c(Cl)c(Cl)c(Cl)c(Cl)c2C1=O | 1080 s |
| CCCC(CCC)C(=O)N1CCC(Cc2nnc(C3CCOCC3)o2)C1 (configuration not stated) | 755 s |
| COCc1noc([C@@H]2CC(F)(F)CN2C(=O)c2cc(C)oc2C)n1 | 835 s |
| CCc1cccc(NC(=O)CCc2c(C)nc3nc(-c4cc(OC)cc(OC)c4)nn3c2C)c1 | 970 s |
